Assay results: US7745646B2, “Bicyclic heteroaryl inhibitors of PDE4” (Kalypsys, Inc., priority 2006, dated 2010)

target: T1, PDE4B (Homo sapiens, UniProt Q07343); assay: Novel coupled PDE/AK bioluminescent assay, PDE4B inhibition; type: biochemical; conditions: PDE4B catalytic domain
T1 construct: hex-histidine (His6) (N); made in house
T1 sequence (Q07343 330-659 limits assumed, species assumed): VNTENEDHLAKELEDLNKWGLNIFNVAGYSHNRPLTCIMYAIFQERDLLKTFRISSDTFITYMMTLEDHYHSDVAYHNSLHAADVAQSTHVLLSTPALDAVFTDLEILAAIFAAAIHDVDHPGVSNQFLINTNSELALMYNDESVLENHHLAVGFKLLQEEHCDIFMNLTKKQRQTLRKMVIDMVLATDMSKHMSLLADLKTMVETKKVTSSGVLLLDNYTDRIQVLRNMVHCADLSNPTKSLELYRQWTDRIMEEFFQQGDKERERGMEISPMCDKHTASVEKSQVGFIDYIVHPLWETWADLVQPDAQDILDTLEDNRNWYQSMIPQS
From the text: We developed a novel coupled PDE/AK bioluminescent high-throughput assay to measure the activity of phosphodiesterases. In the PDE/AK assay, the AMP produced from the hydrolysis of cAMP by phosphodiesterase is converted to adenosine diphosphate (ADP) by the phosphotransferase activity of adenylate kinase (also known as ADK or myokinase). Adenylate kinase will catalyze the conversion of 1 mole of AMP and 1 mole of ATP into 2 moles of ADP. Thus the conversion of AMP to ADP will result in the subsequent loss of ATP. The decrease in ATP concentration can be monitored as light output using luciferase in a reaction that requires ATP to produce light. The PDE/AK assay uses luciferase, which catalyzes the production of light from ATP present in the reaction mix. The amount of emitted light is inversely proportional to the level of AMP present in the reaction. Test compounds are incubated with the phosphodiesterases and phosphodiesterase inhibitors will decrease the rate of cAMP hydrolysis and decrease the subsequent production of AMP.
A novel coupled PDE/AK assay was utilized to measure the inhibitory activity of compounds on PDE isoforms. The catalytic domain of PDE4B was fused to an amino-terminus hex-histidine affinity tag and purified. PDE4B enzyme was incubated with compounds for 10 minutes. Cyclic AMP substrate, ATP and adenylate kinase were then added to the PDE enzyme mix and incubated for 45 minutes at room temperature. A commercial ATP detection assay, Perkin Elmer's easyLite ATP detection reagent, was then added to measure the relative amount of ATP present in the reaction. After 10 minute incubation, the luminescent signal was quantitated with either the Perkin Elmer Viewlux or Molecular Devices Acquest or Analyst.

IC50 | SMILES
< 1000 nM | COC(=O)COc1c(OC)ccc2c(Nc3c(Cl)cncc3Cl)cc(=O)oc12 [Example 45, Methyl 2-(4-(3,5-dichloropyridin-4-ylamino)-7-methoxy-2-oxo-2H-chromen-8-yloxy)acetate]
< 1000 nM | CCOC(=O)COc1c(OC)ccc2c(Nc3c(Cl)cncc3Cl)cc(=O)oc12 [Example 46, Ethyl 2-(4-(3,5-dichloropyridin-4-ylamino)-7-methoxy-2-oxo-2H-chromen-8-yloxy)acetate]
< 1000 nM | COc1ccc2c(Nc3c(Cl)cncc3Cl)cc(=O)oc2c1OCCC1CCCCC1 [Example 47, 8-(2-Cyclohexylethoxy)-4-(3,5-dichloropyridin-4-ylamino)-7-methoxy-2H-chromen-2-one]
< 1000 nM | COc1ccc2c(Nc3c(Cl)cncc3Cl)cc(=O)oc2c1OCCCc1ccccc1 [Example 48, 4-(3,5-Dichloropyridin-4-ylamino)-7-methoxy-8-(3-phenylpropoxy)-2H-chromen-2-one]
> 1000 nM | COc1ccc2c(Nc3c(Cl)cncc3Cl)cc(=O)oc2c1OCC(=O)O [Example 49, 2-(4-(3,5-Dichloropyridin-4-ylamino)-7-methoxy-2-oxo-2H-chromen-8-yloxy)acetic acid]
< 1000 nM | COc1ccc2c(Nc3c(Cl)cncc3Cl)cc(=O)oc2c1OC[C@@H]1OC(=O)[C@H]2OC(C)(C)O[C@@H]12 [Example 50, 4-(3,5-Dichloropyridin-4-ylamino)-8-(((3aS,4S,6aS)-2,2-dimethyl-6-oxotetrahydrofuro[3,4-d][1,3]dioxol-4-yl)methoxy)-7-methoxy-2H-chromen-2-one]
< 1000 nM | COc1ccc2c(Nc3c(Cl)cncc3Cl)cc(=O)oc2c1OC[C@@H]1OC(=O)[C@@H](O)[C@H]1O [Example 51, 4-(3,5-Dichloropyridin-4-ylamino)-8-(((2S,3R,4S)-3,4-dihydroxy-5-oxotetrahydrofuran-2-yl)methoxy)-7-methoxy-2H-chromen-2-one]
< 1000 nM | COc1ccc2c(Nc3c(Cl)cncc3Cl)cc(=O)oc2c1OCCCCCN1CCN(C)CC1 [Example 52, 4-(3,5-Dichloropyridin-4-ylamino)-7-methoxy-8-(5-(4-methylpiperazin-1-yl)pentyloxy)-2H-chromen-2-one]
< 1000 nM | COc1ccc2c(Nc3c(Cl)cncc3Cl)cc(=O)oc2c1OCCCCCN1CCOCC1 [Example 53, 4-(3,5-Dichloropyridin-4-ylamino)-7-methoxy-8-(5-morpholinopentyloxy)-2H-chromen-2-one]
< 1000 nM | COc1ccc2c(Nc3c(Cl)cncc3Cl)cc(=O)oc2c1OCCCCCN1CCCCC1 [Example 54, 4-(3,5-Dichloropyridin-4-ylamino)-7-methoxy-8-(5-(piperidin-1-yl)pentyloxy)-2H-chromen-2-one]
< 1000 nM | COc1ccc2c(Nc3c(Cl)cncc3Cl)cc(=O)oc2c1OCCCCCN1CCCC1 [Example 55, 4-(3,5-Dichloropyridin-4-ylamino)-7-methoxy-8-(5-(pyrrolidin-1-yl)pentyloxy)-2H-chromen-2-one]
< 1000 nM | COc1ccc2c(Nc3c(Cl)cncc3Cl)cc(=O)oc2c1OCC(N)=O [Example 56, 2-(4-(3,5-Dichloropyridin-4-ylamino)-7-methoxy-2-oxo-2H-chromen-8-yloxy)acetamide]
< 1000 nM | COc1ccc2c(Nc3c(Cl)cncc3Cl)cc(=O)oc2c1OCCCCCC#N [Example 57, 6-(4-(3,5-Dichloropyridin-4-ylamino)-7-methoxy-2-oxo-2H-chromen-8-yloxy)hexanenitrile]
< 1000 nM | COC(=O)CCCCCOc1c(OC)ccc2c(Nc3c(Cl)cncc3Cl)cc(=O)oc12 [Example 58, Methyl 6-(4-(3,5-dichloropyridin-4-ylamino)-7-methoxy-2-oxo-2H-chromen-8-yloxy)hexanoate]
> 1000 nM | COC(=O)CCCCCOc1c(OC)ccc2c(N(C)c3c(Cl)cncc3Cl)cc(=O)oc12 [Example 59, Methyl 6-(4-((3,5-dichloropyridin-4-yl)(methyl)amino)-7-methoxy-2-oxo-2H-chromen-8-yloxy)hexanoate]
< 1000 nM | COc1ccc2c(Nc3c(Cl)cncc3Cl)cc(=O)oc2c1OCCCCCOC(C)=O [Example 61, 5-(4-(3,5-Dichloropyridin-4-ylamino)-7-methoxy-2-oxo-2H-chromen-8-yloxy)pentyl acetate]

IC50 | SMILES
< 1000 nM | COc1ccc2c(Nc3c(Cl)cncc3Cl)cc(=O)oc2c1OCCOCCBr [Example 62, 8-(2-(2-Bromoethoxy)ethoxy)-4-(3,5-dichloropyridin-4-ylamino)-7-methoxy-2H-chromen-2-one]
< 1000 nM | COc1ccc2c(Nc3c(Cl)cncc3Cl)cc(=O)oc2c1OCCCCCc1nn[nH]n1 [Example 63, 8-(5-(2H-Tetrazol-5-yl)pentyloxy)-4-(3,5-dichloropyridin-4-ylamino)-7-methoxy-2H-chromen-2-one]
< 1000 nM | COc1ccc2c(Nc3c(Cl)cncc3Cl)cc(=O)oc2c1OC [Example 64, 4-(3,5-Dichloropyridin-4-ylamino)-7,8-dimethoxy-2H-chromen-2-one]
< 1000 nM | COc1ccc2c(Nc3c(Cl)cncc3Cl)cc(=O)oc2c1OCCCCCCC(=O)O [Example 65, 7-(4-(3,5-Dichloropyridin-4-ylamino)-7-methoxy-2-oxo-2H-chromen-8-yloxy)heptanoic acid]
< 1000 nM | COc1ccc2c(Nc3c(Cl)cncc3Cl)cc(=O)oc2c1OCCCCCCCC(=O)O [Example 66, 8-(4-(3,5-Dichloropyridin-4-ylamino)-7-methoxy-2-oxo-2H-chromen-8-yloxy)octanoic acid]
< 1000 nM | COc1ccc2c(Nc3c(Cl)cncc3Cl)cc(=O)oc2c1OCCCCCCCCC(=O)O [Example 67, 9-(4-(3,5-Dichloropyridin-4-ylamino)-7-methoxy-2-oxo-2H-chromen-8-yloxy)nonanoic acid]
< 1000 nM | COc1ccc2c(Nc3c(Cl)cncc3Cl)cc(=O)oc2c1OCCCCCN [Example 68, 8-(5-Aminopentyloxy)-4-(3,5-dichloropyridin-4-ylamino)-7-methoxy-2H-chromen-2-one]
< 1000 nM | COc1ccc2c(Nc3c(Cl)cncc3Cl)cc(=O)oc2c1OCCOCCN(C)C [Example 69, 4-(3,5-Dichloropyridin-4-ylamino)-8-(2-(2-(dimethylamino)ethoxy)ethoxy)-7-methoxy-2H-chromen-2-one]
< 1000 nM | COc1ccc2c(Nc3c(Cl)cncc3Cl)cc(=O)oc2c1OCCCCCO [Example 72, 4-(3,5-Dichloropyridin-4-ylamino)-8-(5-hydroxypentyloxy)-7-methoxy-2H-chromen-2-one]
< 1000 nM | COc1ccc2c(Nc3c(Cl)cncc3Cl)cc(=O)oc2c1OCCCCCOc1c(OC)ccc2c(Nc3c(Cl)cncc3Cl)cc(=O)oc12 [Example 74, 8,8′-(Pentane-1,5-diylbis(oxy))bis(4-(3,5-dichloropyridin-4-ylamino)-7-methoxy-2H-chromen-2-one)]
> 1000 nM | COc1ccc2c(Nc3c(Cl)cncc3Cl)cc(=O)oc2c1O[C@@H]1O[C@H](CO)[C@@H](O)[C@H](O)[C@H]1O [Example 77, 4-(3,5-Dichloropyridin-4-ylamino)-7-methoxy-8-((2S,3R,4S,5S,6R)-3,4,5-trihydroxy-6-(hydroxymethyl)tetrahydro-2H-pyran-2-yloxy)-2H-chromen-2-one]
< 1000 nM | COc1ccc2c(Nc3c(Cl)cncc3Cl)cc(=O)oc2c1OCCCCCC(N)=O [Example 78, 6-(4-(3,5-Dichloropyridin-4-ylamino)-7-methoxy-2-oxo-2H-chromen-8-yloxy)hexanamide]
< 1000 nM | COc1ccc2c(Nc3c(Cl)cncc3Cl)cc(=O)oc2c1OCCCCCCN(C)C [Example 79, 4-(3,5-Dichloropyridin-4-ylamino)-8-(6-(dimethylamino)hexyloxy)-7-methoxy-2H-chromen-2-one]
< 1000 nM | COc1ccc2c(Nc3c(Cl)cncc3Cl)cc(=O)oc2c1OCCCCCCCN(C)C [Example 80, 4-(3,5-Dichloropyridin-4-ylamino)-8-(7-(dimethylamino)heptyloxy)-7-methoxy-2H-chromen-2-one]
< 1000 nM | COc1ccc2c(Nc3c(Cl)cncc3Cl)cc(=O)oc2c1OCCCCCCCCN(C)C [Example 81, 4-(3,5-Dichloropyridin-4-ylamino)-8-(8-(dimethylamino)octyloxy)-7-methoxy-2H-chromen-2-one]

SMILES | IC50
COc1ccc2c(Nc3c(Cl)cncc3Cl)cc(=O)oc2c1O[C@@H]1O[C@H](COC(C)=O)[C@@H](OC(C)=O)[C@H](OC(C)=O)[C@H]1OC(C)=O [Example 60, (2R,3R,4S,5R,6S)-2-(Acetoxymethyl)-6-(4-(3,5-dichloropyridin-4-ylamino)-7-methoxy-2-oxo-2H-chromen-8-yloxy)tetrahydro-2H-pyran-3,4,5-triyl triacetate] | < 1000 nM
COc1ccc2c(Nc3c(Cl)cncc3Cl)cc(=O)oc2c1OCCCCN1CCN(C)CC1 [Example 70, 4-(3,5-Dichloropyridin-4-ylamino)-7-methoxy-8-(4-(4-methylpiperazin-1-yl)butoxy)-2H-chromen-2-one] | < 1000 nM
COc1ccc2c(Nc3c(Cl)cncc3Cl)cc(=O)oc2c1OCCCCN1CCOCC1 [Example 71, 4-(3,5-Dichloropyridin-4-ylamino)-7-methoxy-8-(4-morpholinobutoxy)-2H-chromen-2-one] | < 1000 nM
COc1ccc2c(Nc3c(Cl)cncc3Cl)cc(=O)oc2c1OCCCCO [Example 73, 4-(3,5-Dichloropyridin-4-ylamino)-8-(4-hydroxybutoxy)-7-methoxy-2H-chromen-2-one] | < 1000 nM
COc1ccc2c(Nc3c(Cl)cncc3Cl)cc(=O)oc2c1OCCCCCO[C@@H]1O[C@H](COC(C)=O)[C@@H](OC(C)=O)[C@H](OC(C)=O)[C@H]1OC(C)=O [Example 75, (2R,3R,4S,5R,6R)-2-(Acetoxymethyl)-6-(5-(4-(3,5-dichloropyridin-4-ylamino)-7-methoxy-2-oxo-2H-chromen-8-yloxy)pentyloxy)tetrahydro-2H-pyran-3,4,5-triyl triacetate] | < 1000 nM
COc1ccc2c(Nc3c(Cl)cncc3Cl)cc(=O)oc2c1OC/C=C\CO [Example 76, (Z)-4-(3,5-Dichloropyridin-4-ylamino)-8-(4-hydroxybut-2-enyloxy)-7-methoxy-2H-chromen-2-one] | < 1000 nM
